# Measurements published in patent US9561232B2, “Low dose noribogaine for treating nicotine addiction and preventing relapse of nicotine use” (priority 2014, dated 2017).
# Entries after “also recorded” stand apart in the source; their conditions may differ. Like-named read-outs stand apart in the source and are kept apart here.
# Experiments:
# [1] = Treatment emergent adverse events in opioid-dependent participants
# [2] = Pupillometry (pupillary miosis) in healthy volunteers; type: in vivo, human
# Method: Pupillary miosis was assessed by pupillometry.
# [3] = Pharmacokinetics in opioid-dependent patients (Phase IB study); conditions: 60, 120, 180 mg cohorts
# [4] = QT interval evaluation in opioid-dependent participants; type: in vivo, human; conditions: 60, 120, 180 mg, first 24 hours post administration; correlated with serum concentration
# Method: Patients' QT intervals were evaluated at regular time points throughout the study.
# [5] = Safety and tolerability of noribogaine in healthy humans
# [6] = Cold pressor test in healthy volunteers; type: in vivo, human; conditions: ANOVA after adjusting for baseline
# Method: Analgesic effect was assessed based on duration of hand immersion in ice water and on visual analog scale (VAS) pain scores upon hand removal from the water bath.
# [7] = system: zebrafish during nicotine withdrawal; type: in vivo
# Method: A total of 60 adult wild type short-fin zebrafish (˜50:50 male:female ratio) were used in this study. Fish were housed in groups of 20-30 fish per 40-L tank. Tanks were filled with filtered water and maintained at 25° C. Illumination (1000-1100 lx) was provided by ceiling-mounted fluorescent lights on a 12-h cycle (on: 6.00 h, off: 18.00 h) according to the standards of zebrafish care. All fish used in this study were experimentally naïve and fed Tetramin Tropical Flakes (Tetra USA, Blacksburg, Va.) twice a day. Following behavioral testing, the animals were euthanized in 500 mg/L Tricaine (Sigma-Aldrich, St. Louis, Mo.) buffered to pH=7.0. Animal experimentation in this study fully adhered to national and institutional guidelines and regulations.
# A 1 mg/L dose of noribogaine (DMX1) was chosen based on pilot experiments and literature reports on effective doses other similar compounds. […] A standard 20-min pre-treatment time was chosen based on experience with a wide range of other neuroactive compounds and the results of pilot studies. This exposure time was also sufficient for provoking physiological (e.g., cortisol and c-fos) responses of zebrafish to multiple drugs. Drug exposure in this study was performed by submerging individual zebrafish in a 1-L plastic beaker for 20 min prior to the testing. The solution was regularly changed after each exposure, to ensure that each fish is exposed to a consistent concentration of noribogaine. Control fish were exposed to noribogaine-free water for the same treatment time, as described above.
# Behavioral testing was performed between 11:00 and 15:00 h using tanks with water adjusted to the holding room temperature (25° C.). The study used the novel tank test (NTT) protocol. NTT represents one of the most commonly used neurophenotyping tests for adult zebrafish. To avoid the test battery or handling effects, each assay was performed once, on a separate individual naïve fish each time. Prior to testing, fish were pre-exposed individually in a 1-L plastic beaker for 20 min to either drug-treated or drug-free water. During testing, zebrafish behavior was recorded by two trained observers blind to the treatments, who manually scored different behavioral endpoints (inter- and intra-rater reliability in all experiments>0.85) with subsequent automated analysis of generated traces by Ethovision XT8.5 software (Noldus IT, Wageningen, Netherlands). The NTT, used to assess zebrafish anxiety and locomotion, was a 1.5-L trapezoidal tank (15 cm height×28 cm top×23 cm bottom×7 cm width; Aquatic Habitats, Apopka, Fla.) maximally filled with water and divided into two equal virtual horizontal portions by a line marking the outside walls. Fish were individually pre-exposed to water (water control), chronic nicotine (1 mg/L), repeated withdrawal from chronic nicotine (WD), and repeated withdrawal plus noribogaine (1 mg/L) for 20 min and tested in the standard 5-min NTT.
# Zebrafish behavior was recorded by trained observers, scoring the latency to reach the top half of the tank(s), time spent in top(s), number of transitions to top, as well as the number and duration(s) of freezing bouts. Freezing was defined as a total absence of movement, except for the gills and eyes, for >2 s. Trials were also recorded to a computer using a USB webcam (2.0-megapixel, Gigaware, UK) and subsequently analyzed by Ethovision XT8.5, assessing distance traveled (m), velocity (m/s), and meandering endpoints. During manual observation, videos were recorded in MPEG1 format with the maximum sample rate 30 fps for each trial by auto-focusing 2.0 MP USB webcams, placed 25 cm in front of the tanks, and attached to laptop computers. Recorded videos were analyzed with Ethovision XT8.5 software. All environments were calibrated for each arena and the calibration axes were placed to designate the origin (0,0) at the center of each tank. […]
# nicotine dependent rats = assay: Nicotine self-administration test; type: in vivo, Sprague-Dawley rats
# [8] = Ascending single oral dose pharmacokinetics of noribogaine in healthy volunteers (plasma, urine, LCMSMS); conditions: for mean AUC/24 hr / mean AUC/24: fasting conditions, serum
# [9] = nicotine withdrawal + 1 mg/L, 20 min immersion, 5-min NTT
# [10] = nicotine withdrawal + 1 mg/L, NTT
# [11] = nicotine withdrawal + 1 mg/L, vs control, chronic nicotine and nicotine withdrawal groups
# [12] = noribogaine in plasma, across dose groups 3-60 mg
structure (smiles),measurement,setting,value
CC[C@H]1CC2C[C@H]3c4[nH]c5ccc(O)cc5c4CCN(C2)C13 [Noribogaine],Headaches,[1]; 60 mg treatment group,frequent
same,Headaches,[1]; 120 mg and 180 mg dose groups,attenuated
same,adverse effects observed,"[1]; opioid-dependent participants, single 60, 120 or 180 mg",Few adverse effects
same,Dry Mouth,"[1]; treatment emergent AE, 60 mg, N = 6",0
same,"pupil diameter, each dose group compared with placebo","[2]; ANOVA after adjusting for baseline, 3-60 mg",no statistically significant differences
same,pupillary constriction,"[2]; healthy volunteers, single oral 3-60 mg",no evidence of pupillary constriction
same,dose dependence of maximum serum concentration (Cmax),[3],increased in a dose-dependent manner
same,QT interval prolongation (ΔQTcl),[4],dose-dependent increase in QT interval prolongation
same,number of adverse events reported,[5]; 3 mg dose group,five adverse events were reported by two subjects
same,number of adverse events reported,[5]; 10 mg dose group,one adverse event was reported by single subjects
same,number of adverse events reported,[5]; 30 mg dose group,one adverse event was reported by single subjects
same,intensity of adverse events,"[5]; all dose groups, all resolved prior to study completion",mild-moderate intensity
same,Adverse events: Mild,"[5]; healthy volunteers, 3 mg dose",Dizziness; also recorded: Epistaxis; also recorded: Headache; also recorded: Back pain
same,Adverse events: Moderate,"[5]; healthy volunteers, 3 mg dose",Headache
same,Adverse events: Mild,"[5]; healthy volunteers, 10 mg dose",Headache
same,Adverse events: Mild,"[5]; healthy volunteers, 30 mg dose",Headache
same,QTcF values,"[5]; healthy volunteers, 3-60 mg, at any time",≤ 500 ms
same,increase in QTcF,"[5]; one subject, 10 mg, single increase at 24 hours post-dosing",> 60 ms
same,"VAS pain scores, each dose group compared with placebo",[6],no statistically significant differences
same,"duration of hand immersion, each dose group compared with placebo",[6],no statistically significant differences
same,anxiolytic-like effects (manual NTT endpoints),[7]; 1 mg/L,statistically significant anxiolytic-like effects
same,circling behavior,"[7]; 1 mg/L, NTT, unaltered turn angle",did not evoke circling behavior
same,Anxiogenic-like and locomotor effects of repeated nicotine withdrawal,"[7]; 1 mg/L, acute",fully reversed
same,motor activity (distance traveled and velocity measures),"[7]; 1 mg/L, computer-generated NTT endpoints",unaltered motor activity
same,efficacy in pilot experiment,"[7]; 1 mg/L, dose did not promote locomotor effects",sub-maximal efficacy
same,latency to top,[7]; [9],statistically significant decrease
same,transitions to top,[7]; [9],statistically significant increase
same,transitions to upper half of tank per minute (habituation),[7]; [9],reached values equivalent to the control group at 5 minutes
same,Average velocity,[7]; [10],corrected by noribogaine treatment
same,Freezing bouts' frequency and duration,[7]; [10],reversed that effect in nicotine withdrawal fish and re-established levels to that of the control fish group
same,Total distance traveled (anxiety-like response of withdrawal group),[7]; [10],corrected by treatment with noribogaine
same,absolute change in direction (rotation angle),[7]; [10],no difference observed
same,"absolute change in direction of movement per distance moved (FIG. 12, panel G), reduced in withdrawal group",[7]; [10],corrected by treatment with noribogaine
same,freezing bouts frequency,[7]; [10],re-established the high bouts due to nicotine withdrawal toward control levels
same,high-mobility number of events,[7]; [10],increase in high-mobility number of events
same,increase of hi-mobility duration and frequency (factor),[7]; [10],~2
same,"mobility and immobility endpoints (durations, frequency)",[7]; [10],reestablished mobility (mobile and immobile) durations and frequency in nicotine treated fish to control values
same,"relative change in direction; absolute change in direction of movement per distance moved (FIG. 12, panels E and F)",[7]; [10],no change was seen
same,"mobility and immobility endpoints (durations, frequency)","[7]; nicotine withdrawal + 1 mg/L, NTT, listed as noribogaine",control-equivalent values for mobility and immobility endpoints
same,turning rotation rate,"[7]; nicotine withdrawal + 1 mg/L, over chronic nicotine and nicotine withdrawal groups",slight increase in turning rotation rate
same,average entry duration,[7]; [11],increased average entry duration
same,time spent in top,[7]; [11],Statistically significant increases in the duration of time spent in the top(s) portion of the tank
same,nicotine infusion,"nicotine dependent rats; 12.5 mg/kg orally 2 hours prior to test, P<0.10 vs vehicle",A trend of depression of nicotine infusions
same,nicotine infusion,"nicotine dependent rats; 25 mg/kg orally 2 hours prior to test, P<0.001 vs vehicle",significantly depressed nicotine infusion
same,nicotine infusion,"nicotine dependent rats; 50 mg/kg orally 2 hours prior to test, P<0.001 vs vehicle",significantly depressed nicotine infusion
same,inactive lever press during nicotine self-administration,"nicotine dependent rats; all treatments, repeated measure ANOVA, P>0.05",no significant main effect of treatment
same,Tmax,"[8]; healthy volunteers, single oral 30 mg noribogaine, fasted, plasma, mean (SD), n = 6, listed as noribogaine free base",1.75 h
same,Mean half-life estimates,[8]; [12],28 to 50 h
same,time of peak concentrations after oral dosing,[8]; [12],2 to 3 h
same,mean AUC/24 hr,[8]; single dose of 3 mg noribogaine free base,3.1 ng/mL
same,mean AUC/24 hr,[8]; single dose of 10 mg noribogaine free base,10.6 ng/mL
same,mean AUC/24,[8]; single dose of 30 mg noribogaine free base,29.2 ng/mL
same,mean AUC/24,[8]; single dose of 60 mg noribogaine free base,61 ng/mL
same,dose dependence of Cmax and AUC,[8]; single oral 3-60 mg,increased linearly with dose
